The data set can be described thus: RP, Agilent ZORBAX Eclipse Plus C18, 150 × 2.1 mm, 3.5 µm, 40 °C, 0.3 mL/min, estimated dead time 1.1 min; A: water + 0.1% formic acid; B: acetonitrile + 0.1% formic acid; gradient (min/%B) 0/2 1/2 2/20 16.5/98 22/98. The conditions noted are these: stereoisomer not certain.

Consider `CCNCC(=O)Nc1c(C)cccc1C`, for which the LC retention time is 5.35 min.
Consider `CCCC[P+](CCCC)(CCCC)CC1OCCO1`, for which the LC retention time is 8.76 min.
With `CN1CC(=O)N2C(Cc3c([nH]c4ccccc34)C2c2ccc3c(c2)OCO3)C1=O` (configuration not stated) the figure was 9.8 min.
Then `c1ccc2sc(NC3CCCCC3)nc2c1`, with 9.08 min; and `O=c1[nH]cnc2c1ncn2C1CC(O)C(CO)O1` (configuration not stated), with 4.18 min.
With `c1ccc(COCCC[P+](c2ccccc2)(c2ccccc2)c2ccccc2)cc1` the figure was 9.73 min.
Consider `CN(C)CC(c1ccc(O)cc1)C1(O)CCCCC1` (configuration not stated), for which the LC retention time is 5.37 min.
Then `CCC(CCC(C)O)COC(=O)c1ccccc1O` (configuration not stated), with 12.9 min; and `COc1nc(NC(C)C)nc(NC(C)C)n1`, with 7.39 min.
Then `C[N+](C)(CCOc1ccccc1)Cc1ccccc1`, with 7.14 min.
Turning to `COc1ccc2c(c1)CCC1C2CCC2(C)C(=O)CCC12` (configuration not stated), the LC retention time was 10.5 min.
Then `O=C([O-])CCC[P+](c1ccccc1)(c1ccccc1)c1ccccc1`, with 7.19 min.
With `O=S(=O)(O)NC1CCCCC1` the figure was 5.07 min.
Consider `CN(C)CC1CCCCC1(O)c1cccc(O)c1` (configuration not stated), for which the LC retention time is 5.39 min.
Turning to `NC(=O)N1c2ccccc2CC(=O)c2ccccc21`, the LC retention time was 8.32 min.
Then `O=C(O)c1ccccc1`, with 7.56 min; and `c1ccc2sc(SSN3CCOCC3)nc2c1`, with 13.8 min.
In the case of `C=C(c1ccc(C(=O)O)cc1)c1cc2c(cc1C)C(C)(C)CCC2(C)C`, the LC retention time is 17.6 min.
Then `CC1(C)SC2C(NC(=O)C(N)c3ccccc3)C(=O)N2C1C(=O)O` (configuration not stated), with 5.37 min; and `Cc1ccc(N)cc1N`, with 2.14 min; and `OCCN1CCN(CCCN2c3ccccc3C=Cc3ccccc32)CC1`, with 7.24 min.
Then `Nc1ccc(O)c([N+](=O)[O-])c1`, with 4.69 min; and `Oc1ccc(O)cc1`, with 3.67 min.
Turning to `COc1cccc(C2(O)CCCCC2CN(C)C)c1` (configuration not stated), the LC retention time is 6.21 min.
Then `CC(C)C(=O)c1ccc(C(C)C(=O)O)cc1` (configuration not stated), with 10.2 min; and `Cc1ccc(-c2nc3ccccc3[nH]2)cc1`, with 6.06 min.
With `c1ccc2[nH]c(-c3cscn3)nc2c1` the figure was 5.2 min; with `Cc1cc(C(C)(C)C)c(O)c(C)c1CC1=NCCN1`, 7.43 min.
With `CC12CCC3C4CCC(=O)C=C4CCC3C1CCC2O` (configuration not stated) the figure was 10.4 min.
Regarding `CN(C)C1C(=O)C(C(N)=O)=C(O)C2(O)C(=O)C3=C(O)c4c(O)cccc4C(C)(O)C3CC12` (configuration not stated), the LC retention time is 5.46 min.
With `Cc1ccc(NC(=O)c2ccc(CN3CCN(C)CC3)cc2)cc1Nc1nccc(-c2cccnc2)n1` the figure was 6.15 min; with `O=C(C[P+](c1ccccc1)(c1ccccc1)c1ccccc1)OCc1ccccc1`, 9.2 min.
Then `CCCCCCCCCCCCCCCCCC[N+](C)(C)Cc1ccccc1`, with 14.9 min.
Then `O=c1[nH]c2c(c(=O)n1C1CCCCC1)CCC2`, with 9.02 min.
On to `COc1cccc(C2(O)CCCCC2C[N+](C)(C)[O-])c1` (configuration not stated), for which the LC retention time was 6.33 min.
With `CC(=O)OCC[N+](C)(C)C` the figure was 2.06 min; with `O=c1c2ccccc2[nH]c2ccccc12`, 8.5 min.
As for `O=P(O)(O)Cc1ccccc1`, the LC retention time is 5.04 min.
Then `CNCC(c1ccc(OC)cc1)C1(O)CCCCC1` (configuration not stated), with 6.44 min; and `O=C1OC2(c3ccc(O)cc3Oc3cc(O)ccc32)c2ccccc21`, with 9.53 min.
Then `O=P(c1ccccc1)(c1ccccc1)c1ccccc1`, with 10.5 min; and `COCC(=O)N(c1c(C)cccc1C)C(C)C(=O)OC` (configuration not stated), with 10.2 min; and `CCNc1nc(NC(C)C)nc(SC)n1`, with 8.65 min.
With `O=[N+]([O-])c1ccc(O)c([N+](=O)[O-])c1` the figure was 9.21 min; with `S=c1[nH]c2ccccc2o1`, 8.26 min; with `CN(C)c1ccc(C=O)cc1`, 8.87 min.
Consider `CCOc1ccccc1NC(=O)C(=O)Nc1ccccc1CC`, for which the LC retention time is 15.4 min.
Then `Nc1cccc2[nH]c(-c3ccccc3)nc12`, with 5.28 min; and `CCCCC1=NC2(CCCC2)C(=O)N1Cc1ccc(-c2ccccc2-c2nn[nH]n2)cc1`, with 9.35 min; and `NC(=O)N1c2ccccc2C(O)C(O)c2ccccc21` (configuration not stated), with 6.66 min.
`CSc1ccc(O)cc1C`: the LC retention time was 9.8 min.
With `CC(=O)Nc1ccccc1` the figure was 6.74 min; with `NC1=NC(O)c2ncn(COCCO)c2N1` (configuration not stated), 3.12 min; with `O=C(CCc1ccc(O)cc1)c1c(O)cc(O)cc1O`, 8.77 min.
For `Nc1ccc(S(=O)(=O)Nc2ccccn2)cc1`, the LC retention time was 5.55 min.
Consider `Cn1c(=O)c2ncn(C)c2n(C)c1=O`, for which the LC retention time is 4.73 min.
With `O=C(c1ccccc1)c1ccc(O)c(O)c1O` the figure was 9.4 min.
Then `Cn1c(=O)[nH]c(=O)c2[nH]cnc21`, with 4.5 min; and `CC(O)C(=O)N(C)c1ccccc1` (configuration not stated), with 6.76 min; and `CC12CCC3c4cc(O)c(O)cc4CCC3C1CCC2=O` (configuration not stated), with 9.98 min.
With `O=C(O)c1ccc(O)cc1` the figure was 5.62 min.
As for `CCC(C)C(N)C(=O)O` (configuration not stated), the LC retention time was 2.36 min.
With `CC(=O)OC1(C(C)=O)CCC2C3CC(C)C4=CC(=O)CCC4(C)C3CCC21C` (configuration not stated) the figure was 13.7 min; with `CCc1cccc(C)c1N(C(=O)CS(=O)(=O)O)C(C)COC` (configuration not stated), 8.25 min; with `O=C(NO)c1ccccc1`, 4.89 min.
In the case of `CNC(=O)N(C)c1nc2ccccc2s1`, the LC retention time was 9.78 min.
With `c1ccc(C2CN3CCSC3=N2)cc1` (configuration not stated) the figure was 5.02 min; with `COC(=O)c1ccc(O)cc1`, 7.59 min; with `Cc1ccc(OP(=O)(Oc2ccc(C)cc2)Oc2ccc(C)cc2)cc1`, 15.9 min.
Then `CCOC(=O)c1ccc(O)cc1`, with 8.83 min; and `CCCC[P+](CCCC)(CCCC)CCCC`, with 9.65 min.
With `O=C(NCc1ccccc1)NC1CCCCC1` the figure was 10.3 min; with `CNCC(c1ccc(O)cc1)C1(O)CCCCC1` (configuration not stated), 5.66 min; with `O=c1[nH]c2ccccc2s1`, 7.78 min.
On to `CCCCCCCCCCCCCCCC[N+](C)(C)C`, for which the LC retention time was 12.8 min.
Then `COC(=O)Nc1cccc(N)c1`, with 4.29 min; and `O=c1[nH]c(=O)c2ncn(C3OC(CO)C(O)C3O)c2[nH]1` (configuration not stated), with 4.35 min.
Then `CC(=O)Nc1ccc(C)cc1`, with 7.71 min; and `CC(C)NCC(O)COc1ccc(CC(=O)O)cc1` (configuration not stated), with 4.89 min.
For `CSc1ncnc2c1ncn2C1OC(CO)C(O)C1O` (configuration not stated), the LC retention time is 5.67 min.
With `Nc1ncnc2c1ncn2C1OC(CO)C(O)C1O` (configuration not stated) the figure was 3.2 min.
With `CCC1(c2ccccc2)C(=O)NCNC1=O` the figure was 6.35 min; with `CC(C)(C)CC(C)(C)c1ccc(OCCOCC[N+](C)(C)Cc2ccccc2)cc1`, 11.5 min; with `c1ccc2n[nH]nc2c1`, 5.88 min.
As to `COc1ccc2c3c1OC1C(OC(C)=O)C=CC4C(C2)N(C)CCC341` (configuration not stated), the LC retention time is 6.21 min.
Consider `CCCCP(=O)(O)O`, for which the LC retention time was 4.77 min.
Then `C=Cc1ccc(C[N+](C)(C)C)cc1`, with 5.4 min; and `COc1ccc2cc(C(C)C(=O)O)ccc2c1` (configuration not stated), with 10.9 min.
Then `CCN1CCCC1CNC(=O)c1cc(S(N)(=O)=O)ccc1OC` (configuration not stated), with 4.96 min; and `CN1C(C(=O)Nc2ccccn2)=C(O)c2ccccc2S1(=O)=O`, with 9.53 min; and `Cc1cc(=O)n(-c2ccccc2)n1C`, with 6.26 min.
Take `CN(C)CCOC(c1ccccc1)c1ccccc1`: the LC retention time was 7.72 min.
Then `C[N+](C)(Cc1ccccc1)Cc1ccccc1`, with 6.13 min; and `COc1cc(C(=O)O)cc(OC)c1OC`, with 7.63 min.
With `OC(c1ccccc1)(c1ccccc1)C1CCNCC1` the figure was 6.64 min; with `COc1cc(C(=O)O)cc(OC)c1O`, 5.7 min.
For `O=S(=O)(O)c1nc2ccccc2s1`, the LC retention time is 6.5 min.
With `COC(=O)C(Cc1ccccc1)NC(=O)C(N)CC(=O)O` (configuration not stated) the figure was 5.76 min; with `S=c1[nH]c2ccccc2s1`, 9.12 min; with `CCc1cccc(C)c1N(C(=O)C(=O)O)C(C)COC` (configuration not stated), 9.91 min.
With `COCC(O)c1ccc(OCC(O)CNC(C)C)cc1` (configuration not stated) the figure was 5.06 min; with `C=CCC1=C(C)C(OC(=O)C2C(C=C(C)C)C2(C)C)CC1=O` (configuration not stated), 16.1 min; with `Cc1c(N)c(=O)n(-c2ccccc2)n1C`, 4.78 min.
In the case of `CCCCCCCCCCC(C(=O)c1ccc(OC)cc1)[N+](C)(C)C` (configuration not stated), the LC retention time is 11.3 min.
Then `NP(=O)(c1ccccc1)c1ccccc1`, with 7.41 min.
With `CC(C)=CC[P+](c1ccccc1)(c1ccccc1)c1ccccc1` the figure was 9.02 min; with `ON(Cc1ccccc1)Cc1ccccc1`, 8.96 min.
